In data set [1] the test system is oRG cells. Description: Time-lapse imaging of mitotic somal translocation (MST) after shRNA knockdown, primary cortical slice culture. The note with it: for length of MST (somal translocation length): oRG cells during normal human development, primary slice culture, vs scrambled control hairpin. It is filed as cell-based, human. An excerpt:
As described by Hansen et al. (2010), human fetal brain tissue was collected and transported in artificial CSF (ACSF; 125 mm NaCl, 2.5 mm KCI, 1 mm MgCl2, 2 mm CaCl2, 1.25 mm NaH2PO4, 25 mm NaHCO3, 25 mm d-(+)-glucose, bubbled with 95%O2/5%CO2). Brain tissue was embedded in 3% low melting point agarose in ACSF and 250-300 µm coronal vibratome sections were generated. Sections were transferred on Millicell-CM slice culture inserts (Millipore) and cultured in cortical slice culture medium (66% BME, 25% Hanks, 5% FBS, 1% N-2, 1% penicillin, streptomycin and glutamine, all Invitrogen, and 0.66% d-(+)-glucose, Sigma-Aldrich). High titer gfp labeled lentivirus was applied directly to slices that were then cultured at 37° C., 5% CO2, 8% O2 for ~ 96 h. For time-lapse imaging, cultures were then transferred to an inverted Leica TCS SP5 with an on-stage incubator streaming 5% CO2, 5% O2, balance N2 into the chamber. Slices were imaged for GFP using a 10x objective at 15-30 min intervals for up to 3 d with repositioning of the z-stacks every ~12 h. Movies were analyzed with Imaris.
PTPRZ1 and its ligand, PTN, are identified in this disclosure as necessary for tumor invasion and viability. It was tested whether the expression of PTPRZ1 is required for the role of oRG-like cells in glioblastoma invasion using genetic and pharmacologic approaches. Previous work has linked PTPRZ1 and PTN with the Rho/Rho-kinase (ROCK) signaling pathway in glioblastoma. […] Given that the functional significance of key oRG markers such as PTPRZ1 remains unknown, and the role of MST has not been previously described in glioblastoma, the role of PTPRZ1/PTN signaling in oRG cell behavior was studied. shRNA mediated knock down of both PTPRZ1 and PTN in oRG cells was used during normal human development and the impact on MST was monitored. […] To relate these findings to invasive behavior, in vitro invasion assays were performed on PDX tumor samples treated with either control, scrambled shRNAs, PTPRZ1 shRNAs, or Rock inhibitor to inhibit MST.

Data set [2] relates to DBTRGFL patient derived xenograft line. In words: Time-lapse imaging of MST after shRNA knockdown in PDX line. It is filed as cell-based, human. The note with it: 4 technical replicates. Here is the method:
FIG. 6A. PTPRZ1 Promotes MST driven invasiveness of glioblastoma.
Dissociated tumor cells were seeded onto matrigel coated glass bottom wells. 24 hours after plating cells were infected with a CMV-adeno-GFP virus (Vector Biolabs) to allow for visualization of cell morphology and behavior. Cell were cultured at 37° C., 5% CO2, and 8% O2, and monitored for GFP and expression (~ 24 to 48 h). Cultured cells were then transferred to an inverted Leica TCS SP5 with an on-stage incubator (while streaming 5% CO2, 5% O2, balance N2 into the chamber), and imaged in both the GFP and transmitted light channels using a × 10 objective at 15-20 min intervals for up to 4. Movies were analyzed with Imaris.

For data set [3], the system named is patient derived xenograft (PDX) line DBTRGFL. Description: In vitro invasion assay (gap filling). It is filed as cell-based, human. The note with it: imaged every 24 hours, Day 0 to Day 3, vs scrambled shRNA control. The protocol:
FIG. 6B. PTPRZ1 Promotes MST driven invasiveness of glioblastoma. Invasion assays of patient derived xenograft (PDX) line DBTRGFL were performed with control (scrambled shRNA), PTPRZ1 knockdown (shRNA) and Rock Inhibition. Invasions were imaged every 24 hours, and Day 0 and Day 3 are shown. Quantification was performed by calculating how much of the gap was filled. Statistics were performed for both PTPRZ1 knockdown and Rock inhibition, and statistics are showing for Rock inhibition on top and PTPRZ1 knockdown below (* = p <0.05, ** p < 0.01, *** p < 0.001, Student’s two-sided t-test).
PTPRZ1 and its ligand, PTN, are identified in this disclosure as necessary for tumor invasion and viability. It was tested whether the expression of PTPRZ1 is required for the role of oRG-like cells in glioblastoma invasion using genetic and pharmacologic approaches. Previous work has linked PTPRZ1 and PTN with the Rho/Rho-kinase (ROCK) signaling pathway in glioblastoma. […] Given that the functional significance of key oRG markers such as PTPRZ1 remains unknown, and the role of MST has not been previously described in glioblastoma, the role of PTPRZ1/PTN signaling in oRG cell behavior was studied. shRNA mediated knock down of both PTPRZ1 and PTN in oRG cells was used during normal human development and the impact on MST was monitored. […]

The test system of data set [4] is PTPRZ1. Description: Validation of knockdown (immunofluorescence, Western blot, qPCR). The data set is classed as cell-based, human. The note with it: vs scrambled control hairpin. The protocol:
FIG. 12B. Transplants of primary glioblastoma tumors into cortical organoids. […] Western blot and qPCR to validate knockdown (quantified across 3 replicates for qPCR) were also performed.

The nature of data set [5]: Proliferation, cell titer blue assay. The data set is classed as cell-based. The note with it: any time point, n=5. An excerpt:
FIG. 12D. Transplants of primary glioblastoma tumors into cortical organoids. Proliferation as indicated by cell titer blue assay is shown for PTPRZ1 shScr (Ctrl) or shPTPRZ1 (KD). […] On the right, an invasion well with white lines added to mark the bounds of the invasion chamber.

For data set [6], the system named is primary developing human cortex cells and primary glioblastoma cells. Description: Single-cell RNA sequencing after PTPRZ1 knockdown. The data set is classed as cell-based. The note with it: primary and glioblastoma samples. An excerpt: FIG. 5F. Sorting for PTPRZ1 positive cells enriches for oRG-like cells. Workflow of single-cell sequencing is shown. PTPRZ1 KD and a scrambled control were used to knockdown PTPRZ1 in both primary developing human cortex cells and primary glioblastoma cells. […] (* = p-value < 0.05). […] These changes were accompanied by a significant downregulation of several outer radial glia marker genes.
Primary cells (GW 17, n = 2) and primary tumor samples (n = 2) were dissociated and infected with lentivirus either with a hairpin against PTPRZ1 mRNA or a control hairpin during plating. Cells were maintained in their normal media conditions for 1 week, after which cells were removed from the plate with trypsinization, dissociated into a single-cell suspension, and captured with 10X v2 single-cell as previously described.
To better understand the molecular mechanism of PTPRZ1 signaling in glioblastoma tumor propagation, and to characterize how these cells differ from normal radial glia, in vitro KD was performed of PTRPZ1 in dissociated cell culture of primary developing cortex, primary tumor dissociated cell culture, and PDX dissociated cell culture. […] Each control/treatment pair was analyzed individually and the radial glia populations were isolated for further examination (FIG. 5F). […]

Here are results for 2 substances from patent publication US20230204565A1, “Methods for Culturing Cancer Cells and for Inhibiting Invasion of Cancer” (The Regents of the University of California, priority 2020, published 2023).

Entries after “also recorded” stand apart in the source; their conditions may differ.

“PTN shRNA: short hairpin RNA knocking down PTN, the ligand of PTPRZ1; exemplary sequence SEQ ID NO: 6 (CCGGAGGCAAGAAACAGGAGAAGATCTCGAGATCTTCTCCTGTTTCTTGCCTTTTTT)”: the “length of MST (somal translocation length)” value in data set [1] is given as “significantly reduced the length of MST; also recorded: decrease the length of somal translocation length”.
For the substance “PTPRZ1 shRNA: short hairpin RNA against PTPRZ1 mRNA, lentivirus-delivered; exemplary sequence SEQ ID NO: 5 (CCGGCCAGACAACAAGCACAAGAATCTCGAGATTCTTGTGCTTGTTGTCTGGTTTTT)”, the “length of MST (somal translocation length)” value in data set [2] is “similarly impacted the length of MST; also recorded: decrease the length of somal translocation length”; in data set [1] it was “significantly reduced the length of MST; also recorded: decrease the length of somal translocation length”. The “invasive behavior of the PDX tumors” value in data set [3] is on record as “significantly decreased the invasive behavior”. The PTPRZ1 protein knockdown entry in data set [4] was “validates protein knockdown”. Also, the “Proliferation, difference shScr (Ctrl) vs shPTPRZ1 (KD)” value in data set [5] is “not significant”. In data set [6] (1 week after lentiviral infection, vs scrambled hairpin), the “proportion of radial glia and other progenitor populations” value was “decrease in the proportion of both radial glia and other progenitor populations”. In data set [6] (radial glia populations), the “expression of other key markers of radial glia identity” value was “down-regulated”. Also, the somal translocation length result in data set [1] (primary samples, 3 biological replicates and 4 technical replicates each (FIG. 6A)) is “decrease the length of somal translocation length”.
